In BindingDB's records for patent US20250221979 (Shouyao Holdings (Beijing) Co., 2025):

Target: S-adenosylmethionine synthase isoform type-2 (Homo sapiens, UniProt P31153)
Test: In Vitro Enzymatic Inhibition Activity Assay
Description: Enzymatic activity assays of compounds of this patent against MAT2A (to detect half inhibitory concentration IC50 values of the compounds) were performed using the phosphate detection kit PiColorLockTM (ab270004, purchased from Abcam). This method utilized the principle that purified human MAT2A enzyme catalyzes the formation of S-adenosylmethionine (SAM) from L-methionine and ATP to release free phosphate, and used the spectrophotometric method to quantify phosphate, so as to determine the enzymatic activity of MAT2A. Compounds were diluted in a 10-fold gradient starting at 1 mM with 100% DMSO (for a total of 8 concentrations) and 2 μL of each concentration was added to 48 μL of reaction buffer (50 mM Tris-HCl PH 7.5, 50 mM KCl, 10 mM MgCl2, 0.01% Brij-35, 0.01% BSA, 1 mM DTT) and mixed well. The final diluted compound was prepared, and 5 μL of MAT2A enzyme (final concentration of 10 nM), 5 μL of ATP (final concentration of 50 μM), and 5 μL of L-methionine (final concentration of 100 μM) were added to each well of a 384-well plate (#3701, purchased from CORNING). After the 384-well plate was placed in the incubator at 23° C. for 6 h, 5 μL of PiColorLock reagent diluted Accelerator (dilution ratio 1:100) was added to each well, and the reaction was stopped by incubating in the incubator at 23° C. for 5 min. 2 μL of Stabiliser was added, the absorbance was read at 630 nm on BMG CLARIOstar, and the IC50 value of the compound was calculated by using GraphPad Prism software.

Sequence of S-adenosylmethionine synthase isoform type-2 (P31153 whole entry, canonical isoform): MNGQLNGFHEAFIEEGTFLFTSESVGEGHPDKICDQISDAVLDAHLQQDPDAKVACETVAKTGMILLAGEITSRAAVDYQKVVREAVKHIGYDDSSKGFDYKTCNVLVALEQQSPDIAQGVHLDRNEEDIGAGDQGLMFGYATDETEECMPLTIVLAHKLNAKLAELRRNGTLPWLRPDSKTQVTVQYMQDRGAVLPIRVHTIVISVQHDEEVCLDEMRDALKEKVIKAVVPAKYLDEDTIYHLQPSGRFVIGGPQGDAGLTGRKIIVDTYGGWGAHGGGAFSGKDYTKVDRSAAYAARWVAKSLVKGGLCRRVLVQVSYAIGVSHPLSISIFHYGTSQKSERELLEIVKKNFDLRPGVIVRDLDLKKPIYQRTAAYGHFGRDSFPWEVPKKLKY

| IC50 [nM] | SMILES |
| --- | --- |
| 1.19 | COC(=O)c1c(N)c2ccc(OC(F)F)cc2n(-c2ccc(N)cc2)c1=O [US20250221979, Example 320] |
| 1.19 | COC(=O)c1c(N)c2ncc(C3CC3)nc2n(-c2ccc(C(C)O)cc2)c1=O (stereo not drawn) [US20250221979, Example 356] |
| 1.96 | COC(=O)c1c(N)c2ccc(OC(F)F)nc2n(-c2ccc([C@@H](C)O)cc2)c1=O [US20250221979, Example 372] |
